In the oligonucleotide strings, read from the 5' end, every base follows the letter of its sugar. An asterisk marks phosphorothioate; unmarked linkages are phosphodiester. Other units and linkages are bracketed, terminal groups are in braces. A string of capitals states the bases alone. d = 2'-deoxy (DNA); m = 2'-O-methyl
Target: T1, human TLR9 (Homo sapiens, UniProt Q9NR96)
T1 construct: HA; host or cells: 293XL-hTLR9-HA (HEK293)
T1 sequence (Q9NR96 26-1032): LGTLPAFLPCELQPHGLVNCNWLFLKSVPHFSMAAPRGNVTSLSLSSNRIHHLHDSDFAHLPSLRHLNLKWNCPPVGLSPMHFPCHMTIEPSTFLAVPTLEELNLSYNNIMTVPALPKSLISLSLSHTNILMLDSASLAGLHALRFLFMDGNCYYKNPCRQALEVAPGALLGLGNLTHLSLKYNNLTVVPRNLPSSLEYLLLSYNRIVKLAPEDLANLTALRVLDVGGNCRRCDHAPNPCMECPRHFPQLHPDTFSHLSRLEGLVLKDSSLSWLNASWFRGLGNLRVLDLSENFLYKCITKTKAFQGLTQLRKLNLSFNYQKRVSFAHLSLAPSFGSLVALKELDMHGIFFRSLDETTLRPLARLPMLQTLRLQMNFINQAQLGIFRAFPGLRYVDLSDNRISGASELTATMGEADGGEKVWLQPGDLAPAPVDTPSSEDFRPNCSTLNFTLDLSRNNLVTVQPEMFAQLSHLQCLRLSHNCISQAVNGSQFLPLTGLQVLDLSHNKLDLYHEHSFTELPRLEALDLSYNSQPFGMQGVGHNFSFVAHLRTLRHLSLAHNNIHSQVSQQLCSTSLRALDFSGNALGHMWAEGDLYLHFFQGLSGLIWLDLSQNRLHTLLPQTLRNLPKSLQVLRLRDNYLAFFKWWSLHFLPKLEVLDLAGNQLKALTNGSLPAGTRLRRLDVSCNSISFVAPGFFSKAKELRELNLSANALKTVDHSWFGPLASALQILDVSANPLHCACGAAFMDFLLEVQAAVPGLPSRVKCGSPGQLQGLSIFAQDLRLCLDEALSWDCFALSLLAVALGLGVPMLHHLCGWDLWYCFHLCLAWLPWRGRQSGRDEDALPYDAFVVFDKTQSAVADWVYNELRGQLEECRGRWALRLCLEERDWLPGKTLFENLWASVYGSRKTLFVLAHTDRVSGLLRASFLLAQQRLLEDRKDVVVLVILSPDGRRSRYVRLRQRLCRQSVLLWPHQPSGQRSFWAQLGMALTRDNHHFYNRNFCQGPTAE
Assay: HEK-TLR9 NF-κB-luciferase reporter, ODN2006 stimulation
Format: cell-based
Details: for TLR9 100 nM (averaged NF-κB-Luciferase level relative to ODN2006 condition): ASO 100 nM; for TLR9 100 nM (averaged NF-κB-Luciferase level relative to ODN2006 condition) / TLR9 500 nM (averaged NF-κB-Luciferase level relative to ODN2006 condition): relative to ODN2006 only, given as fraction; for TLR9 500 nM (averaged NF-κB-Luciferase level relative to ODN2006 condition): ASO 500 nM; for TLR9-500 nM: averaged NF-κB-Luciferase relative to ODN2006: 500 nM ASO 45 min, then 200 nM ODN2006 overnight, percentage of ODN2006 only

CCTTGCACGTGGCTTC (antisense; LNA-modified, pattern not given here) [EGFR-1013 LNA V1]
TLR9 100 nM (averaged NF-κB-Luciferase level relative to ODN2006 condition): 0.814 | TLR9 500 nM (averaged NF-κB-Luciferase level relative to ODN2006 condition): 0.519

CTTGGCTTCGTGGAGC (antisense; LNA-modified, pattern not given here) [MB21D1-520 LNA V1]
TLR9 100 nM (averaged NF-κB-Luciferase level relative to ODN2006 condition): 0.596 | TLR9 500 nM (averaged NF-κB-Luciferase level relative to ODN2006 condition): 0.371

CCAACACTTCGTGGGG (antisense; LNA-modified, pattern not given here) [HPRT LNA-668 V1]
TLR9 100 nM (averaged NF-κB-Luciferase level relative to ODN2006 condition): 1.065 | TLR9 500 nM (averaged NF-κB-Luciferase level relative to ODN2006 condition): 0.610

TCCGCCCAAAGGGAAC (antisense; LNA-modified, pattern not given here) [HPRT LNA-1027 KL]
TLR9 100 nM (averaged NF-κB-Luciferase level relative to ODN2006 condition): 0.876 | TLR9 500 nM (averaged NF-κB-Luciferase level relative to ODN2006 condition): 0.599

TCGTGGGGTCCTTTTC (antisense; LNA-modified, pattern not given here) [HPRT LNA-660 V1]
TLR9 100 nM (averaged NF-κB-Luciferase level relative to ODN2006 condition): 0.461 | TLR9 500 nM (averaged NF-κB-Luciferase level relative to ODN2006 condition): 0.462

TGTCCTTGCACGTGGC (antisense; LNA-modified, pattern not given here) [EGFR-1016 LNA V1]
TLR9 100 nM (averaged NF-κB-Luciferase level relative to ODN2006 condition): 1.020 | TLR9 500 nM (averaged NF-κB-Luciferase level relative to ODN2006 condition): 0.853

AGGCCCTTCGCACTTC (antisense; LNA-modified, pattern not given here) [EGFR-1225 LNA V1]
TLR9 100 nM (averaged NF-κB-Luciferase level relative to ODN2006 condition): 0.576 | TLR9 500 nM (averaged NF-κB-Luciferase level relative to ODN2006 condition): 0.211

ACACTTCGTGGGGTCCTTTT (antisense; 2'-MOE modified, pattern not given here) [HPRT-663 MOE]
inhibition of TLR9, 2′MOE ASOs (in words) (HEK-TLR9, 100 nM MOE ASO 45 min, 200 nM ODN2006 (FIG. 30)): stronger inhibitor than 664/665 and 666 ASOs | TLR9 100 nM (MOE-modified ASO at 100 nM, averaged NF-κB-Luciferase relative to ODN2006 condition): 0.114 | TLR9 500 nM (MOE-modified ASO at 500 nM, averaged NF-κB-Luciferase relative to ODN2006 condition): 0.226

CCAGCAGGTCAGCAAA (antisense; LNA-modified, pattern not given here) [HPRT LNA-388 KL]
TLR9 100 nM (averaged NF-κB-Luciferase level relative to ODN2006 condition): 0.736 | TLR9 500 nM (averaged NF-κB-Luciferase level relative to ODN2006 condition): 0.149

mG*mC*mA*mG*mU*C*T*C*C*A*T*G*T*C*C*mC*mA*mG*mG*mC (GCAGUCTCCATGTCCCAGGC; antisense; sugars from the 5' end m5 d10 m5, all phosphorothioate, methylation of C not given here) [[CDKN2B-AS1]2234]
inhibition of TLR9 sensing of ODN2006 (in words) (HEK-TLR9, 500 nM 2′OMe or PS oligos, 200 nM ODN2006): did not inhibit TLR9 | TLR9-500 nM: averaged NF-κB-Luciferase relative to ODN2006 (HEK-TLR9): 90.04%

ACGTTCAGTCCTGTCC (antisense; LNA-modified, pattern not given here) [HPRT LNA-294 V1]
TLR9 100 nM (averaged NF-κB-Luciferase level relative to ODN2006 condition): 0.427 | TLR9 500 nM (averaged NF-κB-Luciferase level relative to ODN2006 condition): 0.198

GCACACTTCGTACCCA (antisense; LNA-modified, pattern not given here) [CAMSAP1-4915 LNA V1]
TLR9 100 nM (averaged NF-κB-Luciferase level relative to ODN2006 condition): 0.683 | TLR9 500 nM (averaged NF-κB-Luciferase level relative to ODN2006 condition): 0.147

TCCTTGCACGTGGCTT (antisense; LNA-modified, pattern not given here) [EGFR-1014 LNA V1]
TLR9 100 nM (averaged NF-κB-Luciferase level relative to ODN2006 condition): 1.152 | TLR9 500 nM (averaged NF-κB-Luciferase level relative to ODN2006 condition): 1.027

CTTCGTGGGGTCCTTT (antisense; LNA-modified, pattern not given here) [HPRT LNA-662 V1]
TLR9 100 nM (averaged NF-κB-Luciferase level relative to ODN2006 condition): 0.557 | TLR9 500 nM (averaged NF-κB-Luciferase level relative to ODN2006 condition): 0.240

GTCTTCATCGGCCCTG (antisense; LNA-modified, pattern not given here) [CAMSAP1-2113 LNA V1]
TLR9 100 nM (averaged NF-κB-Luciferase level relative to ODN2006 condition): 0.797 | TLR9 500 nM (averaged NF-κB-Luciferase level relative to ODN2006 condition): 0.617

TCTTGGCTTCGTGGAG (antisense; LNA-modified, pattern not given here) [MB21D1-521 LNA V1]
TLR9 100 nM (averaged NF-κB-Luciferase level relative to ODN2006 condition): 1.251 | TLR9 500 nM (averaged NF-κB-Luciferase level relative to ODN2006 condition): 0.595

TGACAAAGATTCACTG (antisense; LNA-modified, pattern not given here) [HPRT LNA-1353 KL]
TLR9 100 nM (averaged NF-κB-Luciferase level relative to ODN2006 condition): 0.819 | TLR9 500 nM (averaged NF-κB-Luciferase level relative to ODN2006 condition): 0.574

GATGGCCTCCCATCTC (antisense; LNA-modified, pattern not given here) [HPRT LNA-331 V1]
TLR9 100 nM (averaged NF-κB-Luciferase level relative to ODN2006 condition): 1.033 | TLR9 500 nM (averaged NF-κB-Luciferase level relative to ODN2006 condition): 0.476

CCTCCCATCTCCTTCA (antisense; LNA-modified, pattern not given here) [HPRT LNA-326 V1]
TLR9 100 nM (averaged NF-κB-Luciferase level relative to ODN2006 condition): 1.010 | TLR9 500 nM (averaged NF-κB-Luciferase level relative to ODN2006 condition): 0.727

mU*mA*mU*mU*mU*C*C*A*C*A*T*G*C*C*C*mA*mG*mU*mG*mU (mU*mA*mU*mU*mU*dC*dC*dA*dC*dA*dT*dG*dC*dC*dC*mA*mG*mU*mG*mU; antisense) [[CDKN2B-AS1]627]
TLR9-500 nM: averaged NF-κB-Luciferase relative to ODN2006 (HEK-TLR9): 71.20%

AGCTTCGAGGCCCCAG (antisense; LNA-modified, pattern not given here) [MB21D1-616 LNA V1]
TLR9 100 nM (averaged NF-κB-Luciferase level relative to ODN2006 condition): 0.114 | TLR9 500 nM (averaged NF-κB-Luciferase level relative to ODN2006 condition): 0.085

GGCACTTTGCCTCCTT (antisense; LNA-modified, pattern not given here) [EGFR-2859 LNA V1]
TLR9 100 nM (averaged NF-κB-Luciferase level relative to ODN2006 condition): 1.092 | TLR9 500 nM (averaged NF-κB-Luciferase level relative to ODN2006 condition): 0.788

mA*mA*mA*mG*mC*A*G*T*C*T*C*C*A*T*G*mU*mC*mC*mC*mA (mA*mA*mA*mG*mC*dA*dG*dT*dC*dT*dC*dC*dA*dT*dG*mU*mC*mC*mC*mA; antisense) [[CDKN2B-AS1]2237]
TLR9-500 nM: averaged NF-κB-Luciferase relative to ODN2006 (HEK-TLR9): 87.17%

mA*mG*mU*mG*mG*C*A*C*A*T*A*C*C*A*C*mA*mC*mC*mC*mU (AGUGGCACATACCACACCCU; antisense; sugars from the 5' end m5 d10 m5, all phosphorothioate, methylation of C not given here) [[CDKN2B-AS1]495]
TLR9-500 nM: averaged NF-κB-Luciferase relative to ODN2006 (HEK-TLR9): 86.07%

CGGCCTCGGAAGCTCT (antisense; LNA-modified, pattern not given here) [MB21D1-168 LNA V1]
TLR9 100 nM (averaged NF-κB-Luciferase level relative to ODN2006 condition): 0.218 | TLR9 500 nM (averaged NF-κB-Luciferase level relative to ODN2006 condition): 0.116

TCCACAATCAAGACAT (antisense; LNA-modified, pattern not given here) [HPRT LNA-551 KL]
TLR9 100 nM (averaged NF-κB-Luciferase level relative to ODN2006 condition): 0.851 | TLR9 500 nM (averaged NF-κB-Luciferase level relative to ODN2006 condition): 0.308

GTGATGGCCTCCCATC (antisense; LNA-modified, pattern not given here) [HPRT LNA-333 V1]
TLR9 100 nM (averaged NF-κB-Luciferase level relative to ODN2006 condition): 0.890 | TLR9 500 nM (averaged NF-κB-Luciferase level relative to ODN2006 condition): 0.694

CACTTCGTGGGGTCCT (antisense; LNA-modified, pattern not given here) [HPRT LNA-664 V1]
TLR9 100 nM (averaged NF-κB-Luciferase level relative to ODN2006 condition): 0.215 | TLR9 500 nM (averaged NF-κB-Luciferase level relative to ODN2006 condition): 0.074

CCCACTTGGCAGACCA (antisense; LNA-modified, pattern not given here) [CTNN2B-1576 LNA V1]
TLR9 100 nM (averaged NF-κB-Luciferase level relative to ODN2006 condition): 0.381 | TLR9 500 nM (averaged NF-κB-Luciferase level relative to ODN2006 condition): 0.656

From patent US20240384268A1, “Oligonucleotides” (Hudson Institute of Medical Research, priority 2021, published 2024)
